Measurements published in patent US20080108674A1, “CATIONIC ANTISEPTIC AND DYE FORMULATION” (ENTURIA, INC., priority 2006, published 2008).

Experiments:
[1] = Compatibility of an anionic dye alone with an aqueous CHG solution (Example 1); type: physicochemical; conditions: 0.13% w/v dye in distilled water, no cationic excipient; after two drops
Method: The compatibility of an anionic dye alone with an aqueous chlorhexidine gluconate (CHG) solution (i.e., without the addition of a cationic excipient) was tested. A 0.13% w/v anionic dye solution was prepared by dissolving 0.13 g FD&C Yellow 6 in 100 ml of distilled water. A 20% w/v aqueous CHG solution was then added drop wise to the dye solution.

[2] = Three-month room temperature storage of aqueous CHG / cationic dye solutions (Examples 7, 8); type: physicochemical; conditions: 2.0% w/v CHG and 0.05% w/v dye in water
Method: The chemical structure and chemical category of each of these dyes are presented below. Crystal violet, malachite green, and Victoria pure blue BO all belong to the same chemical family, triarylmethane. Bismark brown and acriflavine each belong to a different chemical family, azo and acridine, respectively. [drawing 3] [drawing 4]
Aqueous solutions of 2.0% w/v CHG and 0.05% w/v dye were prepared for each of the dyes indicated above to test the stability of the solutions. Each aqueous solution was prepared using a Class A 100 ml volumetric flask, in which 0.050 grams of dye were dissolved in 30.0 ml of distilled water. Additionally, 10.6 g of 20% w/v aqueous CHG solution was added to the flask. The solution was then brought up to volume with distilled water. The solutions were stored for three months at room temperatures.
In particular, the dye tested was azure C, which is a cationic dye that belongs to the thiazin family. Its positive charge comes from a tertiary sulfur atom instead of a quaternary nitrogen atom. The chemical structure and chemical category of azure C is presented below. [drawing 5]
An aqueous solution of 2.0% w/v CHG and 0.05% w/v azure C dye was prepared to test the stability of the solution. The solution was prepared similar to the preparation of the solutions in Example 7. […]

Row | precipitate on drop wise addition of 20% w/v aqueous CHG solution to the dye solution [1] | Compound | time solution stable and dye compatible ([2]; room temperature) | visible precipitate ([2]; stored three months at room temperature)
1 | precipitate was formed | O=S(=O)([O-])c1ccc(N=Nc2c(O)ccc3cc(S(=O)(=O)[O-])ccc23)cc1.[Na+].[Na+] [FD&C Yellow 6, FD&C Yellow No. 6 (Sunset Yellow FCF)] | – | –
2 | – | CNc1ccc2nc3ccc(N)cc3[s+]c2c1.[Cl-] [azure C] | at least three months | no visible precipitate
